Assay results published in the NIST ThermoML archive (doi:10.1016/j.fluid.2016.12.017).

Assay: mean ionic activity coefficient (dimensionless); mn = molality of the nth substance listed, in mol/kg
Conditions: 101 kPa, Liquid, galvanic cell

CCn1cc[n+](C)c1.[Br-] [1-ethyl-3-methylimidazolium bromide] + O
mean ionic activity coefficient
Conditions	298.2 K	308.2 K
m1 = 0.01	0.888	0.895
m1 = 0.0199	0.846	0.859
m1 = 0.0397	0.791	0.813
m1 = 0.0592	0.753	0.781
m1 = 0.0785	0.723	0.757
m1 = 0.1001	0.696	0.735
m1 = 0.1995	0.611	0.665
m1 = 0.3996	0.523	0.585
m1 = 0.6004	0.474	0.534
m1 = 0.7996	0.441	0.497
m1 = 1.001	0.417	0.467
m1 = 1.2	0.398	0.442
m1 = 1.4	0.382	0.42
m1 = 1.6	0.367	0.4
m1 = 1.8	0.354	0.382
m1 = 2	0.341	0.366
m1 = 2.2	–	0.351
